15 compounds from patent publication US20150225377A1, “VEGFR3 INHIBITORS” (CANCER THERAPEUTICS CRC PTY LIMITED, priority 2012, published 2015) can be followed below.

By IC50 is commonly meant the midpoint of a concentration-inhibition curve.

This assay has as its target T1, VEGFR3 (Homo sapiens, UniProt P35916).
T1 construct: host or cells: HMVEC-dLyAD
Kind of assay: VEGFR3 Phospho ELISA assay in HMVEC-dLyAD cells, VEGFC stimulated. Type of assay: cell-based. Particulars: 1 hour compound, 250 ng/mL VEGFC 10 minutes. Here is the method: Adult human dermal lymphatic microvascular endothelial cells (HMVEC-dLyAD) (Cat#CC-2810, Lonza) were seeded into clear-bottom, TC treated 12 well plates (Cat #665180, Greiner Bio-One) in EGM-2MV (Cat#CC-3202, Lonza) at 180,000 cells/well (volume 1 mL), and the plates incubated at 37° C. and 5% CO2 for 6 hours. The media was replaced with EBM-2 (Cat #CC-3156, Lonza)+0.1% BSA (Cat#A8412, Sigma) and cells incubated for a further period (overnight at 37° C. and 5% CO2).
96 well Maxisorp immuno plates (Cat #439454, Nunc) were coated with 100 μL of Total VEGFR3 capture antibody (Part #841888, Human Total VEGFR3/FLT4 ELISA Kit, Cat #DYC3491, R&D Systems), or Phospho VEGFR3 Capture antibody (Part #841885, Human Phospho VEGFR3/FLT4 ELISA Kit, Cat#DYC2724, R&D Systems). The plates were covered and incubated at room temperature overnight.
The coating antibody was flicked out and the plates washed three times with Wash Buffer (Phosphate buffered saline (137 mM NaCl, […], […], […], pH 7.2-7.4), 0.05% Tween 20). 300 μL of blocking buffer (5% v/v Tween 20, 5% w/v sucrose in PBS) was then added to wells and plate incubated for 2 hours at room temperature. Blocking solution is flicked out and plates washed three times and tapped dry.
Compound dilution series were prepared in EBM-2 (Cat #CC-3156, Lonza)+0.1% BSA (Cat#A8412, Sigma) with constant 0.1% DMSO concentration. 439 μL of sample or vehicle control was added to the cell monolayers. Cells are treated for 1 hour at 37° C. and 5% CO2. 250 ng/mL Recombinant human VEGFC (Cat #2179-VC, R & D Systems) added to wells and plates incubated for an additional 10 minutes at 37° C. and 5% CO2.
The media and compounds were removed and the cell monolayer washed once in Dulbecco's Phosphate Buffered Saline (Cat #21600-044, Invitrogen). 130 μL of Lysis buffer added to wells and cell lysate harvested and transferred to tubes and stored on ice. Complete lysis buffer was prepared by adding 10 μL Protease Inhibitor Cocktail (Cat #P8340, Sigma-Aldrich), 10 μL PMSF (Phenylmethanesulfonyl fluoride, Cat #P7626, Sigma-Aldrich, prepared as 500 mM DMSO stock) per 1 mL of Phosphosafe™ Extraction Reagent (Cat #71296, Merck).
The harvested samples were then diluted 1:2 in IC Diluent #18 (5% Tween 20/PBS) and 100 μL transferred to the Total and Phospho VEGFR3 coated, blocked and washed 96 well plates and incubated for 2 hours at room temperature. The plates were then washed three times in wash buffer as described above and tapped dry.
For detection of Total VEGFR3100 μL of Detection antibody (Total VEGFR3 Detection Antibody Part#841888 in Total VEGFR3 kit) diluted in IC Diluent #1 (1% w/v BSA (Cat #A7906, Sigma-Aldrich)/PBS) was added to wells and the plate incubated for 2 hours at room temperature. The plate was then washed three times in wash buffer and tapped dry. 100 μL of streptavidin-HPR diluted in IC diluent #1 Streptavidin-HRP, Part #890803 in Total VEGFR3 kit) was added to wells and incubated at room temperature for 20 minutes followed by washing as described above 100 μL Substrate solution (3,3′,5,5′-Tetramethylbenzidine (TMB) Liquid Substrate System for ELISA, Cat #T0440, Sigma-Aldrich) was added and the plate incubated for 20 minutes in the dark at room temperature followed by the addition of 50 μL stop solution (2 M H2SO4).
Total VEGFR3 levels were quantified using a Multiskan Ascent plate reader and Ascent software fitted with 450 nm filter.
For detection of Phospho VEGFR3, 100 μL of Detection antibody (Anti-Phospho-Tyrosine-HRP Detection Antibody, Part #841403 in Phospho VEGFR3 kit) was diluted in IC Diluent #1 (1% w/v BSA/PBS), added to the wells and the plate incubated for 2 hours at room temperature. The plate was then washed three times in wash buffer as described above and tapped dry. […]
For orientation: ELISA stands for enzyme-linked immunosorbent assay.

T1 sequence (P35916 25-1363): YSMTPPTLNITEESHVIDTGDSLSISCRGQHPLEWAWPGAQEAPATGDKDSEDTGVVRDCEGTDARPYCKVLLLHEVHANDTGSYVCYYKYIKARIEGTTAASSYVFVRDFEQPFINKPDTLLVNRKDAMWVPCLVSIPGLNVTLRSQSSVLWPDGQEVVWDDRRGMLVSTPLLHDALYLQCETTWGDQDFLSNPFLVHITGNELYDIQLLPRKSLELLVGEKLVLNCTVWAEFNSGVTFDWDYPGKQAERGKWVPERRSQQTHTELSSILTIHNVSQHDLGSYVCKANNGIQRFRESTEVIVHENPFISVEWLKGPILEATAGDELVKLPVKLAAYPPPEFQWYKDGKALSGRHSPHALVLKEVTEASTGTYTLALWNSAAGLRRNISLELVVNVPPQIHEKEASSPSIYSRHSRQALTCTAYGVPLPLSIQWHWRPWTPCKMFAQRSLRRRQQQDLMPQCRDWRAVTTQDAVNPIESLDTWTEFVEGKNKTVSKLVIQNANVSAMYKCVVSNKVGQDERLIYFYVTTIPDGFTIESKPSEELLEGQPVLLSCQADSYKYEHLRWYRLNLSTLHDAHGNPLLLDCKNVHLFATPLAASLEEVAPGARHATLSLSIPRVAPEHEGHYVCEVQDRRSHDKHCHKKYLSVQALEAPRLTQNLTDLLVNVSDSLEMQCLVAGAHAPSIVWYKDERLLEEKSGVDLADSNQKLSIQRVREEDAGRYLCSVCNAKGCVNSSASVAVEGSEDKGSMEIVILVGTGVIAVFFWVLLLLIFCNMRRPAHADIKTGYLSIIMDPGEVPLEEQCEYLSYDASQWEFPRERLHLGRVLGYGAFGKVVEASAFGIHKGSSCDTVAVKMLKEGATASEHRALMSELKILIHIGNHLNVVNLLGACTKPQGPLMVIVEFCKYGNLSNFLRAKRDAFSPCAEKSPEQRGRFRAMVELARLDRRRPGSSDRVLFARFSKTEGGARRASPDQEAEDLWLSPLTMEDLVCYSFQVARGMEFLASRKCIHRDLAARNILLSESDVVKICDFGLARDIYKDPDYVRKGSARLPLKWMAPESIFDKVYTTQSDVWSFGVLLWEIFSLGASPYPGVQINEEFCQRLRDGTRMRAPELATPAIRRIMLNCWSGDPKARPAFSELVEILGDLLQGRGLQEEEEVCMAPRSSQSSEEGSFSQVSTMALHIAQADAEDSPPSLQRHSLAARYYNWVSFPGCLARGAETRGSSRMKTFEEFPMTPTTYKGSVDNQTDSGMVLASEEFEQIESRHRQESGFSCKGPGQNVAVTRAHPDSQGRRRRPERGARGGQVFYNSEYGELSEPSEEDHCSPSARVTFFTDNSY

Regarding `Cc1cnc(Nc2ccc(N3CCNCC3)cc2)nc1CCc1ccccc1CC(N)=O` [Compound 2, 2-(2-(2-(5-methyl-2-((4-(piperazin-1-yl)phenyl)amino)pyrimidin-4-yl)ethyl)phenyl)acetamide], the IC50 came out at 121 nM.
In the case of `NCc1ccc(Nc2ncc(C(F)(F)F)c(CCc3ccccc3CC(N)=O)n2)cc1` [Compound 3, 2-(2-(2-(2-((4-(Aminomethyl)phenyl)amino)-5-(trifluoromethyl)pyrimidin-4-yl)ethyl)phenyl)acetamide] it was 156 nM; in that of `Cc1cnc(Nc2ccc(C3CCNCC3)nc2)nc1CCc1ccccc1CC(N)=O` [Compound 4, 2-(2-(2-(5-methyl-2-((6-(piperidin-4-yl)pyridin-3-yl)amino)pyrimidin-4-yl)ethyl)phenyl)acetamide], 2220 nM.
Compound `Cc1cnc(Nc2ccc(C3CCN(C)CC3)nc2)nc1CCc1ccccc1CC(N)=O` [Compound 5, 2-(2-(2-(5-methyl-2-((6-(1-methylpiperidin-4-yl)pyridin-3-yl)amino)pyrimidin-4-yl)ethyl)phenyl)acetamide] had an IC50 of 210 nM.
The result for `NC(=O)Cc1ccccc1CCc1nc(Nc2ccc(C(=O)N3CCNCC3)cc2)ncc1C(F)(F)F` [Compound 6, 2-(2-(2-(2-((4-(piperazine-1-carbonyl)phenyl)amino)-5-(trifluoromethyl)pyrimidin-4-yl)ethyl)phenyl)acetamide] reads 62 nM; that for `Cc1cc(Nc2ncc(C(F)(F)F)c(CCc3ccccc3CC(N)=O)n2)ccc1C1CCNCC1` [Compound 11, 2-(2-(2-(2-((3-methyl-4-(piperidin-4-yl)phenyl)amino)-5-(trifluoromethyl)pyrimidin-4-yl)ethyl)phenyl)acetamide], 39 nM; that for `Cc1cc(Nc2ncc(C(F)(F)F)c(CCc3ccccc3CC(N)=O)n2)ccc1C1CCN(C)CC1` [Compound 12, 2-(2-(2-(2-((3-methyl-4-(1-methylpiperidin-4-yl)phenyl)amino)-5-(trifluoromethyl)pyrimidin-4-yl)ethyl)phenyl)acetamide], 116 nM.
In the case of `Cc1cnc(Nc2ccc(C3CCNCC3)cc2)nc1CCc1ccccc1CC(N)=O` [Compound 16, 2-(2-(2-(5-methyl-2-((4-(piperidin-4-yl)phenyl)amino)pyrimidin-4-yl)ethyl)phenyl)acetamide] it was 214 nM.
The result for `CC(N)c1ccc(Nc2ncc(C(F)(F)F)c(CCc3ccccc3CC(N)=O)n2)cc1` (stereo not drawn) [Compound 18, 2-(2-(2-(2-(4-(1-aminoethyl)phenylamino)-5-(trifluoromethyl)pyrimidin-4-yl)ethyl)phenyl)acetamide] reads 18 nM; that for `Cc1cnc(Nc2cccnc2)nc1CCc1ccccc1CC(N)=O` [Compound 24, 2-(2-(2-(5-methyl-2-(pyridin-3-ylamino)pyrimidin-4-yl)ethyl)phenyl)acetamide], 169 nM.
Consider `Cc1cnc(Nc2ccc(OC3CCNCC3)cc2)nc1CCc1ccccc1CC(N)=O` [Compound 26, 2-(2-(2-(5-methyl-2-((4-(piperidin-4-yloxy)phenyl)amino)pyrimidin-4-yl)ethyl)phenyl)acetamide], for which the IC50 amounted to 83 nM.
The result for `Cc1cnc(Nc2cnn(C)c2)nc1CCc1ccccc1CC(N)=O` [Compound 28, 2-(2-(2-(5-methyl-2-((1-methyl-^1H-pyrazol-4-yl)amino)pyrimidin-4-yl)ethyl)phenyl)acetamide] reads 190 nM; that for `Cc1cnc(Nc2ccc(C3(N)COC3)cc2)nc1CCc1ccccc1CC(N)=O` [Compound 31, 2-(2-(2-(2-(4-(3-aminooxetan-3-yl)phenylamino)-5-methylpyrimidin-4-yl)ethyl)phenyl)acetamide], 107 nM; that for `Cc1cnc(Nc2cnn(C3CCNCC3)c2)nc1CCc1ccccc1CC(N)=O` [Compound 33, 2-(2-(2-(5-Methyl-2-((1-(piperidin-4-yl)-^1H-pyrazol-4-yl)amino)pyrimidin-4-yl)ethyl)phenyl)acetamide], 1250 nM.
The result for `CC(N)c1ccc(Nc2ncc(Cl)c(CCc3ccccc3CC(N)=O)n2)cc1` (stereo not drawn) [Compound 37, 2-(2-(2-(2-(4-(1-aminoethyl)phenylamino)-5-chloropyrimidin-4-yl)ethyl)phenyl)acetamide] reads 26 nM.
